Experimental findings from ChEMBL document CHEMBL3425423, “Hydroxy tricyclic 1,5-naphthyridinone oxabicyclooctane-linked novel bacterial topoisomerase inhibitors as broad-spectrum antibacterial agents-SAR of RHS moiety (Part-3)” (Bioorg Med Chem Lett, 2015) are described below.

Values after ≈ are worked out from the molar mass of the structure shown.

Holding throughout (assay type): functional
The subject of test [1] is Pseudomonas aeruginosa. In words: Antibacterial activity against Pseudomonas aeruginosa PAO1. As to conditions: Pseudomonas aeruginosa, PAO1; read-out: MIC.
Test [2] has as its system Haemophilus influenzae. In words: Antibacterial activity against Haemophilus influenzae ATCC 49247. As to conditions: Haemophilus influenzae, ATCC 49247; read-out: MIC.
Test [3] concerns Escherichia coli. In words: Antibacterial activity against Escherichia coli ATCC 25922. Particulars: Escherichia coli, ATCC 25922; read-out: MIC.
Test [4] deals with Moraxella catarrhalis. Put plainly: Antibacterial activity against Moraxella catarrhalis ATCC 25238. Particulars: Moraxella catarrhalis, ATCC 25238; read-out: MIC.
Test [5] relates to Enterococcus faecalis. Put plainly: Antibacterial activity against Enterococcus faecalis ATCC 29212. Particulars: Enterococcus faecalis, ATCC 29212; read-out: MIC.
Test [6] deals with Acinetobacter baumannii. Put plainly: Antibacterial activity against Acinetobacter baumannii IID876. Particulars: Acinetobacter baumannii, IID876; read-out: MIC.
Test [7] relates to Staphylococcus aureus. Put plainly: Antibacterial activity against Staphylococcus aureus Smith.
Test [8] relates to Enterococcus faecium. Put plainly: Antibacterial activity against VanA-type vancomycin-resistant Enterococcus faecium A2373. As to conditions: Enterococcus faecium, A2373; read-out: MIC.
The test system of test [9] is Streptococcus pneumoniae. Put plainly: Antibacterial activity against Streptococcus pneumoniae IID554.
Test [10] concerns Staphylococcus aureus. In words: Ratio of MIC for quinolone-resistant Staphylococcus aureus MS5935 to MIC for quinolone-sensitive Staphylococcus aureus.
The mark [11] stands for this setting: Staphylococcus aureus, Smith, read-out: MIC.
[12] abbreviates: Streptococcus pneumoniae, IID554, read-out: MIC.

For the compound `O=c1ccc2ncc(F)c3c2n1C[C@@]3(O)CC12CCC(NCc3c(Cl)cc4c(c3Cl)OCCO4)(CC1)CO2`, the MIC in test [1] was found to be 32 µg/mL (≈ 56.9 µM); in test [2], 32 µg/mL (≈ 56.9 µM); in test [3] it was 32 µg/mL (≈ 56.9 µM); in test [4], 32 µg/mL (≈ 56.9 µM); in test [5], 16 µg/mL (≈ 28.4 µM); in [6], 32 µg/mL (≈ 56.9 µM). Moreover, the MIC is 4 µg/mL (≈ 7.11 µM) in test [7] (setting [11]), 32 µg/mL (≈ 56.9 µM) in test [8] and 4 µg/mL (≈ 7.11 µM) in test [9] (setting [12]).

For `O=c1ccc2ncc(F)c3c2n1C[C@@]3(O)CC12CCC(NCc3cc4c(cn3)OCS4)(CC1)CO2`, the MIC in [1] was found to be 32 µg/mL (≈ 64.4 µM); in test [2] it was 4 µg/mL (≈ 8.06 µM); in test [3], 8 µg/mL (≈ 16.1 µM); in [4], 0.5 µg/mL (≈ 1.01 µM); in test [5], 2 µg/mL (≈ 4.03 µM); in [6], 0.5 µg/mL (≈ 1.01 µM). Moreover, the MIC is 0.25 µg/mL (≈ 0.503 µM) in test [7] (setting [11]), 8 µg/mL (≈ 16.1 µM) in test [8] and 0.25 µg/mL (≈ 0.503 µM) in test [9] (setting [12]).

Consider `O=C1COc2ccc(CNC34CCC(C[C@]5(O)Cn6c(=O)ccc7ncc(F)c5c76)(CC3)OC4)nc2N1`, for which the MIC in test [1] was 16 µg/mL (≈ 31.5 µM); in [2], 1 µg/mL (≈ 1.97 µM); in [3], 4 µg/mL (≈ 7.88 µM); in test [4] it was 0.25 µg/mL (≈ 0.493 µM); in test [5], 4 µg/mL (≈ 7.88 µM); in [6], 2 µg/mL (≈ 3.94 µM). For the same compound, the MIC was determined as 0.25 µg/mL (≈ 0.493 µM) in test [7] (setting [11]), 8 µg/mL (≈ 15.8 µM) in [8] and 0.25 µg/mL (≈ 0.493 µM) in test [9] (setting [12]).

With `O=c1ccc2ncc(F)c3c2n1C[C@@]3(O)CC12CCC(NCc3cc4c(c(Cl)c3Cl)OCCO4)(CC1)CO2`, the MIC in test [1] worked out at 32 µg/mL (≈ 56.9 µM); in test [2] it was 32 µg/mL (≈ 56.9 µM); in [3], 32 µg/mL (≈ 56.9 µM); in test [4], 0.5 µg/mL (≈ 0.889 µM); in test [5], 8 µg/mL (≈ 14.2 µM); in test [6], 32 µg/mL (≈ 56.9 µM). Besides, the MIC turned out to be 1 µg/mL (≈ 1.78 µM) in test [7] (setting [11]), 32 µg/mL (≈ 56.9 µM) in test [8] and 4 µg/mL (≈ 7.11 µM) in [9] (setting [12]).

As for `N#Cc1c(CNC23CCC(C[C@]4(O)Cn5c(=O)ccc6ncc(F)c4c65)(CC2)OC3)ncc2c1OCCO2`, the MIC in test [1], in [2], in [3], in [4], in [5] and in [6] was 32 µg/mL (≈ 61.6 µM) each time. For the same compound, the MIC turned out to be 8 µg/mL (≈ 15.4 µM) in test [7] (setting [11]), 32 µg/mL (≈ 61.6 µM) in test [8] and 32 µg/mL (≈ 61.6 µM) in [9] (setting [12]).

As for `CC1COc2cnc(CNC34CCC(C[C@]5(O)Cn6c(=O)ccc7ncc(F)c5c76)(CC3)OC4)cc2O1` (stereo in doubt; 21), the MIC in test [1] worked out at 32 µg/mL (≈ 62.9 µM); in test [2] it was 32 µg/mL (≈ 62.9 µM); in [3], 32 µg/mL (≈ 62.9 µM); in test [4], 32 µg/mL (≈ 62.9 µM); in [5], 16 µg/mL (≈ 31.5 µM); in test [6] it was 32 µg/mL (≈ 62.9 µM). Besides, the MIC in [7] was 4 µg/mL (≈ 7.87 µM); in test [8], 32 µg/mL (≈ 62.9 µM); in test [9], 2 µg/mL (≈ 3.93 µM).

Consider `O=c1ccc2ncc(F)c3c2n1C[C@@]3(O)CC12CCC(NCc3cc4c(cn3)OCCS4)(CC1)CO2`, for which the MIC in test [1] turned out to be 32 µg/mL (≈ 62.7 µM); in test [2], 8 µg/mL (≈ 15.7 µM); in test [3], 32 µg/mL (≈ 62.7 µM); in [4], 1 µg/mL (≈ 1.96 µM); in [5] it was 2 µg/mL (≈ 3.92 µM); in [6], 4 µg/mL (≈ 7.83 µM). Further, the MIC in [7] (setting [11]) turned out to be 0.25 µg/mL (≈ 0.49 µM); in test [8] it was 8 µg/mL (≈ 15.7 µM); in [9] (setting [12]) it was 0.5 µg/mL (≈ 0.979 µM).

`CN1CCN(C)c2nc(CNC34CCC(C[C@]5(O)Cn6c(=O)ccc7ncc(F)c5c76)(CC3)OC4)ccc21`: the MIC in test [1], in test [2], in test [3], in [4], in [5] and in [6] was 32 µg/mL (≈ 61.5 µM) throughout. The values for the MIC in test [7] (setting [11]), in test [8] and in test [9] (setting [12]) were 8 µg/mL (≈ 15.4 µM), 32 µg/mL (≈ 61.5 µM) and 32 µg/mL (≈ 61.5 µM), respectively.

`COc1ccc2nc(CNC34CCC(C[C@]5(O)Cn6c(=O)ccc7ncc(F)c5c76)(CC3)OC4)c(F)cc2n1`: the MIC in test [1], in test [3], in test [5], in test [6], in test [7] (setting [11]) and in test [8] was 16 µg/mL (≈ 29.9 µM) in each case. In test [9] (setting [12]), the MIC is 16 µg/mL (≈ 29.9 µM). For the same compound, the Ratio in test [10] is below 4.

For the compound `O=c1cnc2ccc(CNC34CCC(C[C@]5(O)Cn6c(=O)ccc7ncc(F)c5c76)(CC3)OC4)nc2[nH]1`, the MIC in [1] was found to be 32 µg/mL (≈ 63.4 µM); in [3], 32 µg/mL (≈ 63.4 µM); in [5], 32 µg/mL (≈ 63.4 µM); in test [6], 32 µg/mL (≈ 63.4 µM); in [7] (setting [11]) it was 8 µg/mL (≈ 15.9 µM); in test [8], 32 µg/mL (≈ 63.4 µM). Also, in test [9] (setting [12]), the MIC is 16 µg/mL (≈ 31.7 µM). In addition, in test [10], the Ratio is below 4.

As to `O=c1ccc2ncc(F)c3c2n1C[C@@]3(O)CC12CCC(NCc3ccc4c(c3Cl)OCCO4)(CC1)CO2`, the MIC came to 32 µg/mL (≈ 60.6 µM) in [1]; 32 µg/mL (≈ 60.6 µM) in [2]; 32 µg/mL (≈ 60.6 µM) in [3]; 32 µg/mL (≈ 60.6 µM) in [4]; 8 µg/mL (≈ 15.2 µM) in [5]; 32 µg/mL (≈ 60.6 µM) in test [6]. Besides, the figures for the MIC in test [7] (setting [11]), in test [8] and in test [9] (setting [12]) were 1 µg/mL (≈ 1.89 µM), 32 µg/mL (≈ 60.6 µM) and 1 µg/mL (≈ 1.89 µM), respectively.
